According to patent US8178668B2, “2-aminopyridine kinase inhibitors” (OSI Pharmaceuticals, LLC, priority 2008, dated 2012):
Counter-ions that a name gives are not always drawn.

How the values were obtained:
[1] = target: RON (human) (Homo sapiens, UniProt Q04912); experiment: RON kinase AlphaScreen assay (Km of ATP); assay type: biochemical; conditions: ATP at Km; at least duplicate experiments
Experimental: (§1) Person skilled in the art will appreciate that a variety of assay formats may be used to determine the activity of the compounds of this invention. For example, AlphaScreen (Amplified Luminescent Proximity Homogeneous Assay) technology was used with the kinases described below. Assay ATP concentrations for individual kinases are included in the text.
RON (human)—Km of ATP: RON assay is performed in a 384 well assay containing 200 ng/μL biotinylated poly(Glu,Tyr), 0.334 mM vanadate, desired concentration of ATP optimized for the enzyme in assay buffer (50 mM HEPES (pH=7.4), 12.5 mM MgCl2 and 1% glycerol). Desired compound is added in a final concentration of 1% DMSO with control being vehicle of DMSO alone. RON is diluted to the optimized (on a lot-by-lot basis) concentration in an enzyme diluent buffer (50 mM HEPES pH=7.4, 12.5 mM MgCl2 and 1% glycerol, 0.03% Brij35, 0.3 mM EGTA, lmM DTT, and 0.003% BSA). Enzyme is added to initiate the reaction and incubated for 30 min at RT. In subdued light, appropriate amount of PT66 donor and acceptor beads (diluted 1:260 from manufacturer's provision in a 25 mM Tris HCl (pH=7.5), 200 mM NaCl, 100 mM EDTA, 0.3% BSA buffer) are added to the wells. The plates, incubated for 1 h, are read on an AlphaQuest plate reader.

[2] = target: MET (human) (Homo sapiens, UniProt P08581); experiment: MET kinase AlphaScreen assay (Km of ATP); assay type: biochemical; conditions: ATP at Km; at least duplicate experiments
MET (human), sequence (P08581 25-1390): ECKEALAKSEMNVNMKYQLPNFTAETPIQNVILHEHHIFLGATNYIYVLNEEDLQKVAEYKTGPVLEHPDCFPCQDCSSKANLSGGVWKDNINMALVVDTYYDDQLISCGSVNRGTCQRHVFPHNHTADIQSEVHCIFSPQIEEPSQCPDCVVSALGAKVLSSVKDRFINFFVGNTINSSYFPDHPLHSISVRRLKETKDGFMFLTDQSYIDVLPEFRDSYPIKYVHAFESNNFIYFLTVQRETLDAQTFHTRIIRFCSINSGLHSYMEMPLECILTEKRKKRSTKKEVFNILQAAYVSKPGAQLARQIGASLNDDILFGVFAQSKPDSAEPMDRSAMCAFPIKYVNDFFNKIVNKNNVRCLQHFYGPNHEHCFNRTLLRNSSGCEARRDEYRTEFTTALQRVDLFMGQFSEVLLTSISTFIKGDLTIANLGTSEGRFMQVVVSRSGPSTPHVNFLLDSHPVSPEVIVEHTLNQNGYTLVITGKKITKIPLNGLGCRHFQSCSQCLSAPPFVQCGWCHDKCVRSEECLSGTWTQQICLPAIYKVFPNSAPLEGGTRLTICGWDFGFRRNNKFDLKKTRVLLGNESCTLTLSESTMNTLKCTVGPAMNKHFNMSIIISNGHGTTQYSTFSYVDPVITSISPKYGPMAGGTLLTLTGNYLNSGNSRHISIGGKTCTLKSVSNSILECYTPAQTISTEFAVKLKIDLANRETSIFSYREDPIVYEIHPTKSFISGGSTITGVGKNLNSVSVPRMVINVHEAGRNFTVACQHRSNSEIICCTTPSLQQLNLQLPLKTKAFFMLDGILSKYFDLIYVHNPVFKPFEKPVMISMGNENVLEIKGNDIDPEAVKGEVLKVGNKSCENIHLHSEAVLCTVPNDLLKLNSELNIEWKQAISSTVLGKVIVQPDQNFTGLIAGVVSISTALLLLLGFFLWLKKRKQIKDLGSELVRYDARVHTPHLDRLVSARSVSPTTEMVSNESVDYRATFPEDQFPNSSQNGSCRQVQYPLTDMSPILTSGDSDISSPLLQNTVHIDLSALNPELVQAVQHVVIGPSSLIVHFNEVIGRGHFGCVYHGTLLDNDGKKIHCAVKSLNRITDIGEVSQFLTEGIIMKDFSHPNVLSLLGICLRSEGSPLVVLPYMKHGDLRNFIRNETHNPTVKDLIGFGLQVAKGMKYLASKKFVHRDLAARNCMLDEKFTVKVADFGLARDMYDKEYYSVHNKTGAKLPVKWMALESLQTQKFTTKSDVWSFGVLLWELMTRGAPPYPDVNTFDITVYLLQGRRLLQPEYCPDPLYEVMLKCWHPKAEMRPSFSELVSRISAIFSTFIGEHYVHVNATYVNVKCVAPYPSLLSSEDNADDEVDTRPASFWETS
Experimental: as §1
MET (human)—Km of ATP: MET assay is performed in a 384 well assay containing 200 ng/μL biotinylated poly(Glu,Tyr), 0.334 mM vanadate, desired concentration of ATP optimized for the enzyme in assay buffer (50 mM HEPES (pH=7.4), 5 mM MgCl2, 5 mM MnCl2, and 1% glycerol). Desired compound is added in a final concentration of 1% DMSO with control being vehicle of DMSO alone. MET is diluted to the optimized concentration (optimized on a lot-by-lot basis) in an enzyme diluent buffer (50 mM Tris pH=7.4, 1% glycerol, 0.03% Brij35, 0.24 mM EGTA, 1 mM DTT, and 0.003% BSA). Enzyme is added to initiate the reaction and incubated for 60 min at RT. In subdued light, appropriate amount of PT66 donor and acceptor beads (diluted 1:260 from manufacturer's provision in a 25 mM Tris HCl (pH=7.5), 400 mM NaCl, 100 mM EDTA, 0.3% BSA buffer) are added to the wells. The plates, incubated for 1 h, are read on an AlphaQuest plate reader

RON (human), sequence (Q04912 25-1400): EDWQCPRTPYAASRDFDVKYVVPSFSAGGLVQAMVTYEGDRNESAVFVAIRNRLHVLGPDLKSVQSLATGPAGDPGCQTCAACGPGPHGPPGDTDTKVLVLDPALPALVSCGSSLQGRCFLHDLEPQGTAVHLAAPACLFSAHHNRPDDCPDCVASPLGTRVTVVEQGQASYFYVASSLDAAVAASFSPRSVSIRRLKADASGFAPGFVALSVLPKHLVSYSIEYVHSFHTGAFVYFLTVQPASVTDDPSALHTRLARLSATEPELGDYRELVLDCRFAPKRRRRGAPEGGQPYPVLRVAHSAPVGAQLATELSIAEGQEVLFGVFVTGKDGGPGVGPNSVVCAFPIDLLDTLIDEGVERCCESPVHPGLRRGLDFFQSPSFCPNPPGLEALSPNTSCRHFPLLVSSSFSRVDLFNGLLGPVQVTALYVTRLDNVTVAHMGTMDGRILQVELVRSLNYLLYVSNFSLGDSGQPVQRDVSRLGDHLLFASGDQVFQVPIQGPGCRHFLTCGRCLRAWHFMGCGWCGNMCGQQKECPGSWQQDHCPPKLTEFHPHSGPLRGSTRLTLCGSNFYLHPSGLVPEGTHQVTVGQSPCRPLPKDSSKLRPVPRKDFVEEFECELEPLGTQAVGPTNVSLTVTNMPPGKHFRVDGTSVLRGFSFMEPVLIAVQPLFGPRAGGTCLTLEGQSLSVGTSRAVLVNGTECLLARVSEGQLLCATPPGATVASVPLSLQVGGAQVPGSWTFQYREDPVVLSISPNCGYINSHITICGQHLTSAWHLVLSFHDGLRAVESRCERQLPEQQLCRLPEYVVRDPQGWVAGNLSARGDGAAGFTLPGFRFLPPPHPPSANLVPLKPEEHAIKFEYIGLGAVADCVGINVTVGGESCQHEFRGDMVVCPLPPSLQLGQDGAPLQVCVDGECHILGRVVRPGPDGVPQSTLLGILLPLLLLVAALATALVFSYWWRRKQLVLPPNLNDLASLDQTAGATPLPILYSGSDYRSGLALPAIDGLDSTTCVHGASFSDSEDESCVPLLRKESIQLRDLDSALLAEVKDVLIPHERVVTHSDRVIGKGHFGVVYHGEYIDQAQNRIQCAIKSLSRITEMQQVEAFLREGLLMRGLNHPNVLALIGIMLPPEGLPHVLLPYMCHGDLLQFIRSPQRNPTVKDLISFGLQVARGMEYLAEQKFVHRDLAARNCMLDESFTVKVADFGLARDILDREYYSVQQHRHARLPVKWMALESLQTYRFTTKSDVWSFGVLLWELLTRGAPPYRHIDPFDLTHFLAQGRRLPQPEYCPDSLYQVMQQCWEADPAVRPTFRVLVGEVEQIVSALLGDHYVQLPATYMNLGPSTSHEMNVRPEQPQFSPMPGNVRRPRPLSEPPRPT

| SMILES | IC50 [1] [µM] | IC50 [2] [µM] |
| --- | --- | --- |
| Nc1ncc(-c2cnn(C3CCNCC3)c2)cc1-c1cc2c(O)cccc2cn1 [Example 27, 3-[2-Amino-5-(1-piperidin-4-yl-1H-pyrazol-4-yl)-pyridin-3-yl]-isoquinolin-5-ol tri-hydrochloride salt] | 0.1 to 1 | 0.1 to 1 |
| COc1nc(-c2cc(-c3cnn(C4CCNCC4)c3)cnc2N)cc2ccccc12 [Example 30, 3-(1-Methoxyisoquinolin-3-yl)-5-(1-piperidin-4-yl-1H-pyrazol-4-yl)-pyridin-2-ylamine trihydrochloride salt] | 1 to 20 | 0.1 to 1 |
| N#Cc1ccc2cnc(-c3cc(-c4cnn(C5CCNCC5)c4)cnc3N)cc2c1 [Example 31, 3-[2-Amino-5-(1-piperidin-4-yl-1H-pyrazol-4-yl)-pyridin-3-yl]-isoquinoline-6-carbonitrile trihydrochloride salt] | 1 to 20 | 1 to 20 |
| N#Cc1cccc2cnc(-c3cc(-c4cnn(C5CCNCC5)c4)cnc3N)cc12 [Example 33, 3-[2-Amino-5-(1-piperidin-4-yl-1H-pyrazol-4-yl)-pyridin-3-yl]-isoquinoline-5-carbonitrile trihydrochloride salt] | 0.1 to 1 | 0.1 to 1 |
| N#Cc1cccc2cc(-c3cc(-c4cnn(C5CCNCC5)c4)cnc3N)ncc12 [Example 36, 3-[2-Amino-5-(1-piperidin-4-yl-1H-pyrazol-4-yl)-pyridin-3-yl]-isoquinoline-8-carbonitrile trihydrochloride salt] | 0.1 to 1 | 0.1 to 1 |
| N#Cc1ccc(F)c2cnc(-c3cc(-c4cnn(C5CCNCC5)c4)cnc3N)cc12 [Example 37, 3-[2-Amino-5-(1-piperidin-4-yl-1H-pyrazol-4-yl)-pyridin-3-yl]-8-fluoro-isoquinoline-5-carbonitrile trihydrochloride] | 0.1 to 1 | 0.1 to 1 |
| Nc1ncc(-c2cnn(C3CCNCC3)c2)cc1-c1cc2cccc(F)c2cn1 [Example 39, 3-(8-Fluoroisoquinolin-3-yl)-5-(1-piperidin-4-yl-1H-pyrazol-4-yl)-pyridin-2-ylamine] | 0.1 to 1 | ≤ 0.1 |
| Nc1ncc(-c2cnn(C3CCNCC3)c2)cc1-c1cc2c(Cl)cccc2cn1 [Example 42, 3-(5-Chloroisoquinolin-3-yl)-5-(1-piperidin-4-yl-1H-pyrazol-4-yl)-pyridin-2-ylamine trihydrochloride] | 0.1 to 1 | 0.1 to 1 |
| Nc1ncc(-c2cnn(C3CCNCC3)c2)cc1-c1cc2cc(Cl)cc(Cl)c2cn1 [Example 43, 3-(6,8-Dichloroisoquinolin-3-yl)-5-(1-piperidin-4-yl-1H-pyrazol-4-yl)-pyridin-2-ylamine trihydrochloride] | 0.1 to 1 | 0.1 to 1 |
| Nc1ncc(-c2cnn(C3CCNCC3)c2)cc1-c1cc2cc(F)cc(F)c2cn1 [Example 46, 3-(6,8-Difluoroisoquinolin-3-yl)-5-(1-piperidin-4-yl-1H-pyrazol-4-yl)-pyridin-2-ylamine trihydrochloride salt] | 1 to 20 | 0.1 to 1 |
| Nc1ncc(-c2cnn(C3CCNCC3)c2)cc1-c1cc2cc(F)cc(Cl)c2cn1 [Example 47, 3-(8-Chloro-6-fluoroisoquinolin-3-yl)-5-(1-piperidin-4-yl-1H-pyrazol-4-yl)-pyridin-2-ylamine trihydrochloride salt] | 0.1 to 1 | 0.1 to 1 |
| Nc1ncc(-c2cnn(C3CCNCC3)c2)cc1-c1cc2c(-c3ccco3)ccc(F)c2cn1 [Example 48, 3-(8-Fluoro-5-furan-2-ylisoquinolin-3-yl)-5-(1-piperidin-4-yl-1H-pyrazol-4-yl)-pyridin-2-ylamine] | 0.1 to 1 | 0.1 to 1 |
| Nc1ncc(-c2cnn(C3CCNCC3)c2)cc1-c1cc2c(-c3ccoc3)ccc(F)c2cn1 [Example 49, 3-(8-Fluoro-5-furan-3-ylisoquinolin-3-yl)-5-(1-piperidin-4-yl-1H-pyrazol-4-yl)-pyridin-2-ylamine trihydrochloride] | 0.1 to 1 | ≤ 0.1 |
| Nc1ncc(-c2cnn(C3CCNCC3)c2)cc1-c1cc2c(-c3ccccc3)ccc(F)c2cn1 [Example 50, 3-(8-Fluoro-5-phenylisoquinolin-3-yl)-5-(1-piperidin-4-yl-1H-pyrazol-4-yl)-pyridin-2-ylamine] | 0.1 to 1 | 0.1 to 1 |

The next lines start with the values.

| IC50 [1] [µM] | IC50 [2] [µM] | SMILES |
| --- | --- | --- |
| 1 to 20 | 0.1 to 1 | Nc1ncc(-c2cnn(C3CCNCC3)c2)cc1-c1cc2cc(O)ccc2cn1 [Example 28, 3-[2-Amino-5-(1-piperidin-4-yl-1H-pyrazol-4-yl)-pyridin-3-yl]-isoquinolin-6-ol trihydrochloride salt] |
| 0.1 to 1 | 0.1 to 1 | Nc1ncc(-c2cnn(C3CCNCC3)c2)cc1-c1cc2ccc(O)cc2cn1 [Example 29, 3-[2-Amino-5-(1-piperidin-4-yl-1H-pyrazol-4-yl)-pyridin-3-yl]-isoquinolin-7-ol] |
| 0.1 to 1 | 0.1 to 1 | N#Cc1ccc2cc(-c3cc(-c4cnn(C5CCNCC5)c4)cnc3N)ncc2c1 [Example 32, 3-[2-Amino-5-(1-piperidin-4-yl-1H-pyrazol-4-yl)-pyridin-3-yl]-isoquinoline-7-carbonitrile trihydrochloride salt] |
| 1 to 20 | 0.1 to 1 | Nc1ncc(-c2cnn(C3CCNCC3)c2)cc1-c1cc2ccc(F)cc2cn1 [Example 34, 3-(7-Fluoroisoquinolin-3-yl)-5-(1-piperidin-4-yl-1H-pyrazol-4-yl)-pyridin-2-ylamine] |
| 1 to 20 | 1 to 20 | Nc1ncc(-c2cnn(C3CCNCC3)c2)cc1-c1cc2cc(F)ccc2cn1 [Example 35, 3-(6-Fluoroisoquinolin-3-yl)-5-(1-piperidin-4-yl-1H-pyrazol-4-yl)-pyridin-2-ylamine] |
| 0.1 to 1 | ≤ 0.1 | Nc1ncc(-c2cnn(C3CCNCC3)c2)cc1-c1cc2ccc(F)c(Cl)c2cn1 [Example 38, 3-(8-Chloro-7-fluoroisoquinolin-3-yl)-5-(1-piperidin-4-yl-1H-pyrazol-4-yl)-pyridin-2-ylamine trihydrochloride salt] |
| 0.1 to 1 | 0.1 to 1 | Nc1ncc(-c2cnn(C3CCNCC3)c2)cc1-c1cc2cc(Cl)ccc2cn1 [Example 40, 3-(6-Chloroisoquinolin-3-yl)-5-(1-piperidin-4-yl-1H-pyrazol-4-yl)-pyridin-2-ylamine trihydrochloride] |
| 1 to 20 | 0.1 to 1 | Nc1ncc(-c2cnn(C3CCNCC3)c2)cc1-c1cc2ccc(Cl)cc2cn1 [Example 41, 3-(7-Chloroisoquinolin-3-yl)-5-(1-piperidin-4-yl-1H-pyrazol-4-yl)-pyridin-2-ylamine trihydrochloride] |
| 1 to 20 | 1 to 20 | COc1ccc2cc(-c3cc(-c4cnn(C5CCNCC5)c4)cnc3N)ncc2c1 [Example 44, 3-(7-Methoxyisoquinolin-3-yl)-5-(1-piperidin-4-yl-1H-pyrazol-4-yl)-pyridin-2-ylamine trihydrochloride] |
| 1 to 20 | 0.1 to 1 | COc1ccc2cnc(-c3cc(-c4cnn(C5CCNCC5)c4)cnc3N)cc2c1 [Example 45, 3-(6-Methoxyisoquinolin-3-yl)-5-(1-piperidin-4-yl-1H-pyrazol-4-yl)-pyridin-2-ylamine trihydrochloride] |
